Source: patent US8680012B2, “4-phenyl-pyrane-3,5-diones,4-phenyl-thiopyrane-3,6-diones and cyclohexanetriones as novel herbicides” (Syngenta Crop Protection LLC, priority 2006, dated 2014)

Columns and labels:
Assay type in all cases: in vivo
[1] = test system: Alopecurus myosuroides (ALOMY); experiment: Example A pre-emergence herbicidal activity, glasshouse pot test; settings: 480 h, rate 250 g/ha, evaluated 20 days after spraying, read-out: Pre-emergence activity ALOMY (100=total damage to plant; 0=no damage to plant)
Description: (§1) Seeds of a variety of test species were sown in standard soil in pots. After cultivation for one day (pre-emergence) or after 10 days cultivation (post-emergence) under controlled conditions in a glasshouse, the plants were sprayed with an aqueous spray solution derived from the formulation of the technical active ingredient in 0.6 ml acetone and 45 ml formulation solution containing 10.6% Emulsogen EL (Registry number 61791-12-6), 42.2% N-methylpyrrolidone, 42.2% dipropylene glycol monomethyl ether (Registry number 34590-94-8) and 0.2% X-77 (Registry number 11097-66-8). The test plants were then grown in a greenhouse under optimum conditions until, 15 days later for post-emergence and 20 days for pre-emergence, the test was evaluated (100=total damage to plant; 0=no damage to plant).
(§2) Alopecurus myosuroides (ALOMY), Avena fatua (AVEFA), Lolium perenne (LOLPE), Setaria faberi (SETFA), Digitaria sanguinalis (DIGSA), Echinochloa crus-galli (ECHCG)

Avena fatua (AVEFA) [2] = experiment: as above; settings: 480 h, rate 250 g/ha, evaluated 20 days after spraying, read-out: Pre-emergence activity AVEFA (100=total damage to plant; 0=no damage to plant)
Description: as §1, §2

[3] = test system: Digitaria sanguinalis (DIGSA); experiment: as above; settings: 480 h, rate 250 g/ha, evaluated 20 days after spraying, read-out: Pre-emergence activity DIGSA (100=total damage to plant; 0=no damage to plant)
Description: as §1, §2

[4] = test system: Echinochloa crus-galli (ECHCG); experiment: as above; settings: 480 h, rate 250 g/ha, evaluated 20 days after spraying, read-out: Pre-emergence activity ECHCG (100=total damage to plant; 0=no damage to plant)
Description: as §1, §2

Lolium perenne (LOLPE) [5] = experiment: as above; settings: 480 h, rate 250 g/ha, evaluated 20 days after spraying, read-out: Pre-emergence activity LOLPE (100=total damage to plant; 0=no damage to plant)
Description: as §1, §2

Setaria faberi (SETFA) [6] = experiment: as above; settings: 480 h, rate 250 g/ha, evaluated 20 days after spraying, read-out: Pre-emergence activity SETFA (100=total damage to plant; 0=no damage to plant)
Description: as §1, §2

[7] = test system: Alopecurus myosuroides (ALOMY); experiment: Example A post-emergence herbicidal activity, glasshouse pot test; settings: 360 h, rate 125 g/ha, evaluated 15 days after spraying, read-out: Post-emergence activity ALOMY (100=total damage to plant; 0=no damage to plant)
Description: as §1, §2

Avena fatua (AVEFA) [8] = experiment: as above; settings: 360 h, rate 125 g/ha, evaluated 15 days after spraying, read-out: Post-emergence activity AVEFA (100=total damage to plant; 0=no damage to plant)
Description: as §1, §2

[9] = test system: Digitaria sanguinalis (DIGSA); experiment: as above; settings: 360 h, rate 125 g/ha, evaluated 15 days after spraying, read-out: Post-emergence activity DIGSA (100=total damage to plant; 0=no damage to plant)
Description: as §1, §2

[10] = test system: Echinochloa crus-galli (ECHCG); experiment: as above; settings: 360 h, rate 125 g/ha, evaluated 15 days after spraying, read-out: Post-emergence activity ECHCG (100=total damage to plant; 0=no damage to plant)
Description: as §1, §2

Lolium perenne (LOLPE) [11] = experiment: as above; settings: 360 h, rate 125 g/ha, evaluated 15 days after spraying, read-out: Post-emergence activity LOLPE (100=total damage to plant; 0=no damage to plant)
Description: as §1, §2

Setaria faberi (SETFA) [12] = experiment: as above; settings: 360 h, rate 125 g/ha, evaluated 15 days after spraying, read-out: Post-emergence activity SETFA (100=total damage to plant; 0=no damage to plant)
Description: as §1, §2

Row | Structure (SMILES) | pest or weed control at 250 g/ha [1] [%] | pest or weed control at 250 g/ha (Avena fatua (AVEFA) [2]) [%] | pest or weed control at 250 g/ha [3] [%] | pest or weed control at 250 g/ha [4] [%] | pest or weed control at 250 g/ha (Lolium perenne (LOLPE) [5]) [%] | pest or weed control at 250 g/ha (Setaria faberi (SETFA) [6]) [%] | pest or weed control at 125 g/ha [7] [%] | pest or weed control at 125 g/ha (Avena fatua (AVEFA) [8]) [%] | pest or weed control at 125 g/ha [9] [%] | pest or weed control at 125 g/ha [10] [%] | pest or weed control at 125 g/ha (Lolium perenne (LOLPE) [11]) [%] | pest or weed control at 125 g/ha (Setaria faberi (SETFA) [12]) [%]
1 | CCc1ccc(-c2ccc(Cl)cc2Cl)cc1C1=C(O)C(C)(C)OC(C)(C)C1=O [Compound A-45] | 50 | 50 | 100 | 70 | 80 | 90 | 20 | 70 | 100 | 100 | 70 | 80
2 | Cc1ccc(-c2ccc(Cl)c(F)c2)cc1C1=C(O)C(C)(C)OC(C)(C)C1=O [Compound A-47] | 30 | 20 | 70 | 70 | 30 | 60 | 90 | 90 | 80 | 100 | 70 | 50
3 | Cc1ccc(-c2ccc(Cl)c(Cl)c2)cc1C1=C(O)C(C)(C)OC(C)(C)C1=O [Compound A-48] | 30 | 10 | 60 | 100 | 0 | 60 | 70 | 40 | 40 | 40 | 0 | 40
4 | Cc1ccc(-c2ccc(Cl)cc2Cl)cc1C1=C(O)C(C)(C)OC(C)(C)C1=O [Compound A-49] | 0 | 20 | 50 | 100 | 20 | 50 | 50 | 70 | 70 | 80 | 80 | 50
5 | Cc1ccc(-c2ccc(Cl)cc2C)cc1C1=C(O)C(C)(C)OC(C)(C)C1=O [Compound A-51] | 0 | 0 | 50 | 50 | 40 | 10 | 10 | 20 | 60 | 80 | 0 | 40
6 | Cc1ccc(-c2ccc(Cl)c(C(F)(F)F)c2)cc1C1=C(O)C(C)(C)OC(C)(C)C1=O [Compound A-52] | 0 | 0 | 100 | 70 | 10 | 80 | 90 | 70 | 70 | 90 | 30 | 60
